# According to publication PMC11050599, “Novel Tetracyclic Azaphenothiazines with the Quinoline Ring as New Anticancer and Antibacterial Derivatives of Chlorpromazine” (International Journal of Molecular Sciences, 2024):
# Tests used:
# HCT116 cells [1] = assay: Annexin V-FITC/PI apoptosis flow cytometry, HCT116; assay type: cell-based, human; settings: representative dot plot, Figure 4C, IC50, 72 h
# Procedure: (§1) To analyze the number of cells in early apoptosis, late apoptosis, or necrosis, A549, MiaPaca-2, and HCT-116 cell lines were cultured in 6-well plates with a seeding density of 1 × 10^5 cells per well. These cells were then treated with selected compounds (4, 5, and 8) at their respective IC50 concentrations and incubated for 72 h. Subsequently, a commercially available kit, the FITC: Annexin V Apoptosis Detection Kit I from BD Biosciences Pharmingen in San Jose, CA, USA, was utilized to assess apoptosis. After 72 h the cells were harvested, washed, and labeled with Annexin V-FITC and propidium iodide (PI) following the manufacturer’s protocol (Becton Dickinson), as previously described. The stained cells were analyzed by flow cytometry. The cells were identified as early apoptotic (Annexin V+/PI−) or late apoptotic/necrotic (Annexin V+/PI+).
# A549 cells [2] = assay: Cell cycle analysis by flow cytometry, A549; assay type: cell-based, human; settings: compound at IC50, 24 h
# Procedure: (§2) In brief, cells were seeded at a density of 1 × 10^5 cells/well on a six-well plate and allowed to adhere for 24 h. […] Both population cells (the attached and detached) were collected and centrifuged at 400× g for 5 min at 4 °C. After centrifugation, the cells were washed twice with 0.9% NaCl and subsequently fixed in 500 μL of 70 % cold ethanol overnight.
# (§3) Before analysis, the fixed cells underwent another centrifugation step at 850× g for 5 min at 4 °C and were washed with PBS. Following the washes, the cells were incubated with 50 μL of RNase (100 μg/mL) and 200 μL of propidium iodide (PI) (50 μg/mL) at 37 °C for 30 min in the dark. Finally, 100 μL of PBS was added to each sample. Flow cytometry (Becton Dickinson FACS Verse, Franklin Lakes, NJ, USA) was then used to analyze the cell cycle distribution, identifying cells in various stages including sub-G1, G0/G1, S, and G2/M phases. Each assay was performed in quadruplicate.
# [3] = test system: MiaPaCa-2 (pancreas cancer); assay: MTT assay, MiaPaCa-2 cells; assay type: cell-based, human
# How it was run: (§4)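 After a 72 h incubation of 1 × 10^4 cells per well with compound, absorbance from MTT reduction was converted to percent of the medium-only control.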
# MiaPaCa-2 cells = assay: Annexin V-FITC/PI apoptosis flow cytometry, MiaPaCa-2; assay type: cell-based, human; settings: representative dot plot, Figure 4B, IC50, 72 h
# Procedure: as §1
# HCT116 cells [4] = assay: Cell cycle analysis by flow cytometry, HCT116; assay type: cell-based, human; settings: IC50, 24 h, compared to the control
# Procedure: as §2, §3
# [5] = test system: HaCaT (immortalized human keratinocytes); assay: MTT assay, HaCaT normal cells; assay type: cell-based; settings: Homo sapiens, HaCaT, 72 h, read-out: IC50 HaCaT (Table 3)
# How it was run: as §4
# PC3 (prostate cancer) = assay: MTT assay, PC3 cells; assay type: cell-based, human
# How it was run: as §4
# HCT116 (colon cancer) = assay: MTT assay, HCT116 cells; assay type: cell-based, human
# How it was run: as §4
# [6] = test system: MDA-MB-231 (breast cancer); assay: MTT assay, MDA-MB-231 cells; assay type: cell-based, human
# How it was run: as §4
# [7] = test system: S. epidermidis ATCC 35984; assay: MIC broth microdilution; assay type: cell-based; settings: Staphylococcus epidermidis, ATCC35984, 19 h, read-out: MIC S. epidermidis ATCC 35984
# How it was run: (§5)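 Two-fold serial broth microdilution in Mueller-Hinton II broth, final inoculum adjusted to […]. Compounds dissolved in DMSO, final solvent at most 1%.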
# S. aureus ATCC 29213 = assay: MIC broth microdilution; assay type: cell-based; settings: Staphylococcus aureus, ATCC29213, 19 h, read-out: MIC S. aureus ATCC 29213
# How it was run: as §5
# P. aeruginosa ATCC 15442 = assay: MIC broth microdilution; assay type: cell-based; settings: Pseudomonas aeruginosa, ATCC15442, 19 h, read-out: MIC P. aeruginosa ATCC 15442
# How it was run: as §5
# S. aureus ATCC 25923 = assay: MIC broth microdilution; assay type: cell-based; settings: Staphylococcus aureus, ATCC25923, 19 h, read-out: MIC S. aureus ATCC 25923
# How it was run: as §5
# S. aureus ATCC 6538 = assay: MIC broth microdilution; assay type: cell-based; settings: Staphylococcus aureus, ATCC6538, 19 h, read-out: MIC S. aureus ATCC 6538
# How it was run: as §5
# S. aureus NCTC 4163 = assay: MIC broth microdilution; assay type: cell-based; settings: Staphylococcus aureus, NCTC4163, 19 h, read-out: MIC S. aureus NCTC 4163
# How it was run: as §5
# E. coli ATCC 25922 = assay: MIC broth microdilution; assay type: cell-based
# How it was run: as §5
# [8] = test system: S. epidermidis ATCC 12228; assay: MIC broth microdilution; assay type: cell-based; settings: Staphylococcus epidermidis, ATCC12228, 19 h, read-out: MIC S. epidermidis ATCC 12228
# How it was run: as §5
# A549 cells [9] = assay: Annexin V-FITC/PI apoptosis flow cytometry, A549; assay type: cell-based, human; settings: representative dot plot, Figure 4A, IC50, 72 h
# Procedure: as §1
# A549 (lung cancer) = assay: MTT assay, A549 cells; assay type: cell-based, human; settings: Homo sapiens, A549, 72 h, read-out: IC50 A549
# How it was run: as §4
# cancer cell lines = assay: MTT assay, summary over several cell lines; assay type: cell-based, human; settings: Homo sapiens, read-out: IC50 range toward four cancerous cell lines
# Procedure: The human cell lines, such as A549 (lung cancer), MDA-MB-231 (breast cancer), MiaPaca-2 (pancreatic cancer), PC3 (metastatic prostate cancer), HCT-116 (colon carcinoma), and HaCaT (immortalized keratinocytes), were sourced from the American Type Culture Collection (ATCC) in Rockville, USA. Culturing conditions varied as follows: HCT116 cells were cultured in MEM (ThermoSci, Waltham, MA, USA), A549, MDA-MB-231, MiaPaca, HaCaT cells in DMEM High Glucose and PC3 cells were cultured in RPMI (Biowest SAS, Nuaillé, France). The growth medium consisted of 10% fetal bovine serum (FBS, Sigma-Aldrich, St. Louis, MO, USA), 20 mM HEPES (Biowest, Nuaillé, France), and antibiotics (100 U/mL of penicillin and 100 μg/mL of streptomycin) from Gibco, Grand Island, NY, USA. […] These compounds were added to 96-well plates containing study cells (1 × 10^4 cells per well) and incubated for 72 h. […] Cell absorbance results were incorporated into the formula for calculating the relative MTT level (%), enabling the assessment of cell viability following exposure to the test compounds. The cell viability percentage represents the MTT reduction in cells treated with the test compounds compared to the control sample, where only the medium was added to the cells.
# [10] = SI = IC50 for normal cell line (HaCaT)/IC50 cancer cell line
smiles,measurement,setting,value
"O=C(NCCCl)NCCCCN1c2cc(Cl)ccc2Sc2cc3ccccc3nc21 [Compound 21, 1-(4-(8-Chloroquino[3,2-b]benzo[1,4]thiazin-6-yl)butyl)-3-(2-chloroethyl)urea]",HCT-116: Alive,HCT116 cells [1],17.91%
same,HCT-116: Early Apoptotic,HCT116 cells [1],1.71%
same,HCT-116: Necrotic,HCT116 cells [1],5.16%
same,HCT-116: Necrotic/Late Apoptotic,HCT116 cells [1],75.22%
same,percentage of Sub G1 phase A549 cells,A549 cells [2],27.6%
same,IC50,"[3]; Homo sapiens, MIA PaCa-2, 72 h, read-out: IC50 MiaPaCa-2",6.4 ± 2.4 µM
same,SI MiaPaCa-2,[3]; [10],0.2
same,MiaPaca: Alive,MiaPaCa-2 cells,8.66%
same,MiaPaca: Early Apoptotic,MiaPaCa-2 cells,2.45%
same,MiaPaca: Necrotic,MiaPaCa-2 cells,37.47%
same,MiaPaca: Necrotic/Late Apoptotic,MiaPaCa-2 cells,51.42%
same,"increase in the cell amount at the sub-G1 phase, HCT116",HCT116 cells [4],12 fold
same,"increase in the number of cells in the G2/M phase, HCT116",HCT116 cells [4],approximately 1.3 fold
same,"increase in the number of cells in the S phase, HCT116",HCT116 cells [4],approximately 2 fold
same,IC50,[5],1.1 ± 0.3 µM
same,IC50,"PC3 (prostate cancer); Homo sapiens, PC-3, 72 h, read-out: IC50 PC3",76.6 ± 9.8 µM
same,SI PC3,PC3 (prostate cancer); [10],0.1
same,IC50,"HCT116 (colon cancer); Homo sapiens, HCT-116, 72 h, read-out: IC50 HCT116",11.3 ± 2.2 µM
same,SI HCT116,HCT116 (colon cancer); [10],0.1
same,IC50,"[6]; Homo sapiens, MDA-MB-231, 72 h, read-out: IC50 MDA",7.4 ± 1.2 µM
same,SI MDA,[6]; [10],0.15
same,MIC,[7],2 µg/mL
same,MIC,S. aureus ATCC 29213,2 µg/mL
same,MIC,P. aeruginosa ATCC 15442,> 256 µg/mL
same,MIC,S. aureus ATCC 25923,2 µg/mL
same,MIC,S. aureus ATCC 6538,2 µg/mL
same,MIC,S. aureus NCTC 4163,2 µg/mL
same,MIC E. coli ATCC 25922,"E. coli ATCC 25922; 19 h, 35 °C",8 µg/mL
same,MIC,"E. coli ATCC 25922; Escherichia coli, ATCC25922, 19 h, read-out: MIC E. coli ATCC 25922",8 µg/mL
same,MIC,[8],2 µg/mL
same,A549: Alive,A549 cells [9],3.27%
same,A549: Early Apoptotic,A549 cells [9],1.31%
same,A549: Necrotic,A549 cells [9],15.90%
same,A549: Necrotic/Late Apoptotic,A549 cells [9],79.52%
same,IC50,A549 (lung cancer),6.98 ± 1.2 µM
same,IC50,cancer cell lines,6.4 to 11.3 µM
